Data taken from PubChem BioAssay (NCI).
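Dose response: 5 concentrations. Exposure: 48 h. Format: 96-well plates. Endpoint: linear interpolation; highest concentration if not reached. TGI: concentration producing complete growth inhibition.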

Experiments:
Assay in all cases: NCI tumour cell line growth inhibition, 48 h
[1] = tested on: PC-3 prostate
[2] = tested on: HCT-116 colon
[3] = tested on: M14 melanoma
[4] = tested on: HL-60(TB) leukemia
[5] = tested on: HOP-18 NSCLC
[6] = tested on: HT29 colon
[7] = tested on: A498 renal
[8] = tested on: XF 498 CNS
[9] = tested on: U251 CNS
[10] = tested on: BT-549 breast
[11] = tested on: NCI/ADR-RES ovarian
[12] = tested on: SK-MEL-2 melanoma
[13] = tested on: OVCAR-3 ovarian
[14] = tested on: MDA-MB-435
[15] = tested on: DMS 273 small cell lung
[16] = tested on: RPMI-8226 leukemia
[17] = tested on: KM12 colon
[18] = tested on: NCI-H522 lung
[19] = tested on: HCT-15 colon
[20] = tested on: MALME-3M melanoma
[21] = tested on: CAKI-1 renal
[22] = tested on: SF-539 CNS
[23] = tested on: KM20L2 colon
[24] = tested on: T-47D breast
[25] = tested on: HS 578T breast
[26] = tested on: K-562 leukemia
[27] = tested on: SNB-75 CNS
[28] = tested on: MCF7 breast
[29] = tested on: SW-620 colon
[30] = tested on: ACHN renal
[31] = tested on: DMS 114 small cell lung
[32] = tested on: MDA-MB-231 breast
[33] = tested on: OVCAR-5 ovarian
[34] = tested on: SR leukemia
[35] = tested on: HCC-2998 colon
[36] = tested on: HOP-62 NSCLC
[37] = tested on: DU-145 prostate
[38] = tested on: P388 leukemia
[39] = tested on: HOP-92 NSCLC
[40] = tested on: SK-OV-3 ovarian
[41] = tested on: EKVX NSCLC
[42] = tested on: SK-MEL-28 melanoma
[43] = tested on: MOLT-4 leukemia
[44] = tested on: NCI-H226 lung
[45] = tested on: NCI-H460 lung
[46] = tested on: MDA-N
[47] = tested on: LOX IMVI melanoma
[48] = tested on: TK-10 renal
[49] = tested on: CCRF-CEM leukemia
[50] = tested on: UACC-62 melanoma
[51] = tested on: SNB-19 CNS
[52] = tested on: SF-268 CNS
[53] = tested on: UO-31 renal
[54] = tested on: IGROV1 ovarian
[55] = tested on: UACC-257 melanoma
[56] = tested on: SN12K1 renal
[57] = tested on: COLO 205 colon
[58] = tested on: NCI-H23 lung
[59] = tested on: SNB-78 CNS
[60] = tested on: DLD-1 colon
[61] = tested on: RXF 393 renal
[62] = tested on: 786-0 renal
[63] = tested on: OVCAR-4 ovarian
[64] = tested on: SF-295 CNS
[65] = tested on: P388/ADR leukemia
[66] = tested on: A549 NSCLC
[67] = tested on: SN12C renal
[68] = tested on: OVCAR-8 ovarian
[69] = tested on: SK-MEL-5 melanoma
[70] = tested on: M19-MEL melanoma

`CCC1(c2ccc(N)cc2)CCC(=O)NC1=O` (stereo not given) was tested, and the TGI [1] was 4.55 mM, the TGI [2] was > 5 mM and the TGI [3] was > 4.56 mM. The TGI [4] was 3.63 mM, the TGI [5] was > 4.91 mM and the TGI [6] was > 3.75 mM. For the same compound, the TGI [7] was > 5 mM, the TGI [8] was 4.26 mM and the TGI [9] was > 4.06 mM. The TGI [10] was > 5 mM, the TGI [11] was 4.82 mM and the TGI [12] was > 5 mM. The TGI [13] was > 3.97 mM, the TGI [14] was > 5 mM and the TGI [15] was > 5 mM. The TGI [16] was > 5 mM, the TGI [17] was > 3.87 mM and the TGI [18] was 4.95 mM. The TGI [19] was > 5 mM, the TGI [20] was > 4.86 mM and the TGI [21] was 4.31 mM. The TGI [22] was > 5 mM, the TGI [23] was > 5 mM and the TGI [24] was > 4.73 mM. The TGI [25] was > 5 mM, the TGI [26] was > 5 mM and the TGI [27] was 4.49 mM. For the same compound, the TGI [28] was > 5 mM, the TGI [29] was > 3.97 mM and the TGI [30] was > 5 mM. The TGI [31] was > 4.32 mM, the TGI [32] was > 5 mM and the TGI [33] was > 5 mM. The TGI [34] was > 5 mM, the TGI [35] was > 5 mM and the TGI [36] was > 1.58 mM. For the same compound, the TGI [37] was > 5 mM, the TGI [38] was > 5 mM and the TGI [39] was 3.56 mM. For the same compound, the TGI [40] was 1.95 mM, the TGI [41] was > 5 mM and the TGI [42] was > 5 mM. For the same compound, the TGI [43] was > 3.75 mM, the TGI [44] was > 4.82 mM and the TGI [45] was > 5 mM. For the same compound, the TGI [46] was > 5 mM, the TGI [47] was > 3.97 mM and the TGI [48] was 4.89 mM. For the same compound, the TGI [49] was > 1.99 mM, the TGI [50] was > 4.51 mM and the TGI [51] was > 5 mM. The TGI [52] was > 5 mM, the TGI [53] was > 3.95 mM and the TGI [54] was > 4.85 mM. For the same compound, the TGI [55] was > 4.88 mM, the TGI [56] was > 5 mM and the TGI [57] was 3.07 mM. The TGI [58] was > 5 mM, the TGI [59] was 4.97 mM and the TGI [60] was > 5 mM. The TGI [61] was > 3.97 mM, the TGI [62] was > 5 mM and the TGI [63] was 4.94 mM. The TGI [64] was > 3.87 mM, the TGI [65] was > 2.81 mM and the TGI [66] was > 5 mM. For the same compound, the TGI [67] was > 5 mM, the TGI [68] was > 5 mM and the TGI [69] was 3.67 mM. The TGI [70] was > 4.74 mM.
